Measurements: ChEMBL document CHEMBL4041467, “Synthesis of novel 15-membered 8a-azahomoerythromycin A acylides: Consequences of structural modification at the C-3 and C-6 position on antibacterial activity” (Eur J Med Chem, 2017)
Values after ≈ are worked out from the molar mass of the structure shown.

Experiments:
Streptococcus pyogenes [1] = assay: Antibacterial activity against constitutively macrolide/lincosamide/streptogramin B-resistant Streptococcus pyogenes by agar microdilution method; assay type: functional
Streptococcus pneumoniae [2] = assay: Antibacterial activity against constitutively macrolide/lincosamide/streptogramin B-resistant Streptococcus pneumoniae by agar microdilution method; assay type: functional
Streptococcus pneumoniae [3] = assay: Antibacterial activity against erythromycin susceptible Streptococcus pneumoniae by agar microdilution method; assay type: functional
Staphylococcus aureus [4] = assay: Antibacterial activity against inducibly macrolide/lincosamide/streptogramin B-resistant Staphylococcus aureus by agar microdilution method; assay type: functional
Staphylococcus aureus [5] = assay: Antibacterial activity against constitutively macrolide/lincosamide/streptogramin B-resistant Staphylococcus aureus by agar microdilution method; assay type: functional
Streptococcus pyogenes [6] = assay: Antibacterial activity against erythromycin susceptible Streptococcus pyogenes by agar microdilution method; assay type: functional
Streptococcus pneumoniae [7] = assay: Antibacterial activity against Mef-mediated macrolide efflux resistant Streptococcus pneumoniae by agar microdilution method; assay type: functional
Staphylococcus aureus [8] = assay: Antibacterial activity against erythromycin susceptible Staphylococcus aureus by agar microdilution method; assay type: functional
Streptococcus pyogenes [9] = assay: Antibacterial activity against Mef-mediated macrolide efflux resistant Streptococcus pyogenes by agar microdilution method; assay type: functional
Haemophilus influenzae = assay: Antibacterial activity against Haemophilus influenzae by agar microdilution method; assay type: functional
Plasma = assay: Stability in rat plasma at 1 uM up to 120 mins by LC-MS/MS analysis; assay type: ADME, cell-free; conditions: 2 h
Staphylococcus aureus [10] = assay: Antibacterial activity against erythromycin susceptible Staphylococcus aureus infected in mouse assessed as increase in mouse survival administered orally 1 hr post infection; assay type: functional; conditions: po
Streptococcus pneumoniae [11] = assay: Antibacterial activity against erythromycin susceptible Streptococcus pneumoniae infected in mouse assessed as increase in mouse survival administered orally 1 hr post infection; assay type: functional; conditions: po
Staphylococcus aureus [12] = assay: Potency index, ratio of clarithromycin ED50 to compound ED50 for erythromycin susceptible Staphylococcus aureus infected in mouse; assay type: functional
Streptococcus pneumoniae [13] = assay: Potency index, ratio of clarithromycin ED50 to compound ED50 for erythromycin susceptible Streptococcus pneumoniae infected in mouse; assay type: functional
[14] = Metabolic stability in mouse liver microsomes assessed as parent compound remaining at 1 uM after 60 mins in presence of NADP by LC-MS/MS analysis; assay type: ADME, microsome; conditions: read-out: Stability
[15] = Metabolic stability in rat liver microsomes assessed as parent compound remaining at 1 uM after 60 mins in presence of NADP by LC-MS/MS analysis; assay type: ADME, microsome; conditions: read-out: Stability
[16] = Metabolic stability in human liver microsomes assessed as parent compound remaining at 1 uM after 60 mins in presence of NADP by LC-MS/MS analysis; assay type: ADME, microsome; conditions: read-out: Stability

| SMILES | MIC (Streptococcus pyogenes [1]) [µg/mL] | MIC (Streptococcus pneumoniae [2]) [µg/mL] | MIC (Streptococcus pneumoniae [3]) [µg/mL] | MIC (Staphylococcus aureus [4]) [µg/mL] | MIC (Staphylococcus aureus [5]) [µg/mL] | MIC (Streptococcus pyogenes [6]) [µg/mL] | MIC (Streptococcus pneumoniae [7]) [µg/mL] | MIC (Staphylococcus aureus [8]) [µg/mL] | MIC (Streptococcus pyogenes [9]) [µg/mL] | MIC (Haemophilus influenzae) [µg/mL] | Stability (Plasma) | ED50 (Staphylococcus aureus [10]) [mg/kg] | ED50 (Streptococcus pneumoniae [11]) [mg/kg] | Ratio ED50 (Staphylococcus aureus [12]) | Ratio ED50 (Streptococcus pneumoniae [13]) | remaining at 1 h, 1 µM [14] [%] | remaining at 1 h, 1 µM [15] [%] | remaining at 1 h, 1 µM [16] [%] |
| --- | --- | --- | --- | --- | --- | --- | --- | --- | --- | --- | --- | --- | --- | --- | --- | --- | --- | --- |
| C=CCO[C@]1(C)C[C@@H](C)NC(=O)[C@H](C)[C@@H](O)[C@](C)(O)[C@@H](CC)OC(=O)[C@H](C)[C@@H](OC(=O)CCN2CCN(c3cc4c(cc3F)c(=O)c(C(=O)O)cn4C3CC3)CC2)[C@H](C)[C@H]1O[C@@H]1O[C@H](C)C[C@H](N(C)C)[C@H]1O | 8 (≈ 7.87 µM) | 4 (≈ 3.94 µM) | 0.5 (≈ 0.492 µM) | 1 (≈ 0.984 µM) | > 64 | 0.5 (≈ 0.492 µM) | 1 (≈ 0.984 µM) | 0.5 (≈ 0.492 µM) | 0.5 (≈ 0.492 µM) | 4 (≈ 3.94 µM) | Stable | – | – | – | – | – | – | – |
| C=CCO[C@]1(C)C[C@@H](C)NC(=O)[C@H](C)[C@@H](O)[C@](C)(O)[C@@H](CC)OC(=O)[C@H](C)[C@@H](OC(=O)C=C)[C@H](C)[C@H]1O[C@@H]1O[C@H](C)C[C@H](N(C)C)[C@H]1O | > 64 | > 64 | 16 (≈ 23.4 µM) | > 64 | > 64 | 16 (≈ 23.4 µM) | > 64 | 32 (≈ 46.7 µM) | > 64 | > 64 | – | – | – | – | – | – | – | – |
| CC[C@H]1OC(=O)[C@H](C)[C@@H](OC(=O)CCNCCNc2cc3c(=O)c(C(=O)O)cn(C4CC4)c3cc2Cl)[C@H](C)[C@@H](O[C@@H]2O[C@H](C)C[C@H](N(C)C)[C@H]2O)[C@](C)(OC/C=C/c2ccc3ncccc3c2)C[C@@H](C)NC(=O)[C@H](C)[C@@H](O)[C@]1(C)O | 4 (≈ 3.53 µM) | – | ≤ 0.125 | 0.25 (≈ 0.221 µM) | > 64 | ≤ 0.125 | 0.25 (≈ 0.221 µM) | 0.25 (≈ 0.221 µM) | 0.25 (≈ 0.221 µM) | 4 (≈ 3.53 µM) | – | 12.8 | 15.1 | 2 | 2 | – | – | – |
| O=C(O)c1cn(C2CC2)c2cc(Cl)c(N3CCNCC3)cc2c1=O | > 64 | > 64 | > 64 | > 64 | > 64 | > 64 | > 64 | > 64 | > 64 | > 64 | – | – | – | – | – | – | – | – |
| CCOc1ccc2ccc(=O)oc2c1 [ETHOXYCOUMARIN] | – | – | – | – | – | – | – | – | – | – | – | – | – | – | – | 30 | 57 | 18 |
| C=CCO[C@]1(C)C[C@@H](C)NC(=O)[C@H](C)[C@@H](O)[C@](C)(O)[C@@H](CC)OC(=O)[C@H](C)[C@@H](OC(=O)CCN2CCN(C(=O)c3ccco3)CC2)[C@H](C)[C@H]1O[C@@H]1O[C@H](C)C[C@H](N(C)C)[C@H]1O | > 64 | > 64 | 0.5 (≈ 0.578 µM) | 2 (≈ 2.31 µM) | > 64 | 0.5 (≈ 0.578 µM) | 4 (≈ 4.62 µM) | 2 (≈ 2.31 µM) | 4 (≈ 4.62 µM) | 8 (≈ 9.25 µM) | – | – | – | – | – | – | – | – |
| C=CCO[C@]1(C)C[C@@H](C)NC(=O)[C@H](C)[C@@H](O)[C@](C)(O)[C@@H](CC)OC(=O)[C@H](C)[C@@H](OC(=O)CCN2CCN(c3ccc(F)cc3)CC2)[C@H](C)[C@H]1O[C@@H]1O[C@H](C)C[C@H](N(C)C)[C@H]1O | > 64 | > 64 | 0.25 (≈ 0.289 µM) | 4 (≈ 4.62 µM) | > 64 | 1 (≈ 1.16 µM) | 2 (≈ 2.31 µM) | 2 (≈ 2.31 µM) | 2 (≈ 2.31 µM) | 16 (≈ 18.5 µM) | – | – | – | – | – | – | – | – |
| CC[C@H]1OC(=O)[C@H](C)[C@@H](OC(=O)CCNCCNc2cc3c(=O)c(C(=O)O)cn(C4CC4)c3cc2Cl)[C@H](C)[C@@H](O[C@@H]2O[C@H](C)C[C@H](N(C)C)[C@H]2O)[C@](C)(OC/C=C/c2ccnc3ccccc23)C[C@@H](C)NC(=O)[C@H](C)[C@@H](O)[C@]1(C)O | 32 (≈ 28.2 µM) | 4 (≈ 3.53 µM) | 0.25 (≈ 0.221 µM) | 0.5 (≈ 0.441 µM) | > 64 | 0.5 (≈ 0.441 µM) | 1 (≈ 0.882 µM) | 0.5 (≈ 0.441 µM) | 4 (≈ 3.53 µM) | 16 (≈ 14.1 µM) | – | – | – | – | – | – | – | – |
| C=CCO[C@]1(C)C[C@@H](C)NC(=O)[C@H](C)[C@@H](O)[C@](C)(O)[C@@H](CC)OC(=O)[C@H](C)[C@@H](OC(=O)CCNC(C)C(=O)Nc2ccccc2)[C@H](C)[C@H]1O[C@@H]1O[C@H](C)C[C@H](N(C)C)[C@H]1O (some centres not stated) | > 64 | > 64 | 0.25 (≈ 0.294 µM) | 4 (≈ 4.71 µM) | > 64 | 0.5 (≈ 0.589 µM) | 1 (≈ 1.18 µM) | 2 (≈ 2.36 µM) | 2 (≈ 2.36 µM) | 16 (≈ 18.8 µM) | – | – | – | – | – | – | – | – |
| C=CCO[C@]1(C)C[C@@H](C)NC(=O)[C@H](C)[C@@H](O)[C@](C)(O)[C@@H](CC)OC(=O)[C@H](C)[C@@H](OC(=O)CCNC(C)Cc2ccccc2)[C@H](C)[C@H]1O[C@@H]1O[C@H](C)C[C@H](N(C)C)[C@H]1O (some centres not stated) | > 64 | > 64 | 1 (≈ 1.22 µM) | 4 (≈ 4.88 µM) | > 64 | 1 (≈ 1.22 µM) | 2 (≈ 2.44 µM) | 4 (≈ 4.88 µM) | 2 (≈ 2.44 µM) | 8 (≈ 9.76 µM) | – | – | – | – | – | – | – | – |
| COC(=O)c1cn(C2CC2)c2cc(N3CCNCC3)c(F)cc2c1=O | > 64 | > 64 | > 64 | > 64 | > 64 | > 64 | > 64 | > 64 | > 64 | 16 (≈ 46.3 µM) | – | – | – | – | – | – | – | – |
| C=CCO[C@]1(C)C[C@@H](C)NC(=O)[C@H](C)[C@@H](O)[C@](C)(O)[C@@H](CC)OC(=O)[C@H](C)[C@@H](OC(=O)CCNCCNc2cc3c(cc2F)c(=O)c(C(=O)O)cn3C2CC2)[C@H](C)[C@H]1O[C@@H]1O[C@H](C)C[C@H](N(C)C)[C@H]1O | 16 (≈ 16.2 µM) | 2 (≈ 2.02 µM) | 0.25 (≈ 0.252 µM) | 0.25 (≈ 0.252 µM) | > 64 | 0.25 (≈ 0.252 µM) | 0.5 (≈ 0.505 µM) | 0.25 (≈ 0.252 µM) | 0.5 (≈ 0.505 µM) | 2 (≈ 2.02 µM) | – | – | – | – | – | – | – | – |
| CC[C@H]1OC(=O)[C@H](C)[C@@H](OC(=O)CCNCCNc2cc3c(=O)c(C(=O)O)cn(C4CC4)c3cc2Cl)[C@H](C)[C@@H](O[C@@H]2O[C@H](C)C[C@H](N(C)C)[C@H]2O)[C@](C)(OC/C=C/c2cccc3ncccc23)C[C@@H](C)NC(=O)[C@H](C)[C@@H](O)[C@]1(C)O | 32 (≈ 28.2 µM) | 8 (≈ 7.06 µM) | 0.5 (≈ 0.441 µM) | 2 (≈ 1.76 µM) | > 64 | 1 (≈ 0.882 µM) | 4 (≈ 3.53 µM) | 1 (≈ 0.882 µM) | 4 (≈ 3.53 µM) | 8 (≈ 7.06 µM) | – | – | – | – | – | – | – | – |
| C=CCO[C@]1(C)C[C@@H](C)NC(=O)[C@H](C)[C@@H](O)[C@](C)(O)[C@@H](CC)OC(=O)[C@H](C)[C@@H](OC(=O)CCNCCCCc2ccccc2)[C@H](C)[C@H]1O[C@@H]1O[C@H](C)C[C@H](N(C)C)[C@H]1O | > 64 | > 64 | 0.5 (≈ 0.599 µM) | 8 (≈ 9.59 µM) | > 64 | 2 (≈ 2.4 µM) | 4 (≈ 4.8 µM) | 2 (≈ 2.4 µM) | 2 (≈ 2.4 µM) | 16 (≈ 19.2 µM) | – | – | – | – | – | – | – | – |
| C=CCO[C@]1(C)C[C@@H](C)NC(=O)[C@H](C)[C@@H](O)[C@](C)(O)[C@@H](CC)OC(=O)[C@H](C)[C@@H](OC(=O)CCN2CCN(c3cc4c(=O)c(C(=O)O)cn(C5CC5)c4cc3Cl)CC2)[C@H](C)[C@H]1O[C@@H]1O[C@H](C)C[C@H](N(C)C)[C@H]1O | 8 (≈ 7.75 µM) | 4 (≈ 3.87 µM) | ≤ 0.125 | 0.25 (≈ 0.242 µM) | > 64 | ≤ 0.125 | 0.5 (≈ 0.484 µM) | ≤ 0.125 | 1 (≈ 0.968 µM) | 4 (≈ 3.87 µM) | – | – | – | – | – | – | – | – |
